Experimental data taken from article PMC10751319, “Bacterial extracellular vesicles: towards realistic models for bacterial membranes in molecular interaction studies by surface plasmon resonance” (Frontiers in Molecular Biosciences, 2023).
Converted amounts (≈) assume the structure as drawn. Like-named read-outs stand apart in the source and are kept apart here. Non-standard residues stand in square brackets, D forms with d. Residues, ends and D or L forms follow the SMILES beside them.

Experiments:
A. baumannii K47-42 = format: cell-based, Acinetobacter baumannii
Experimental: (§1) MIC for all test peptides was determined following EUCAST clinical standard ([Hasselmann, 2003]). Briefly, 3–4 colonies were picked by a cotton swab from freshly plated cultures on agar and resuspended in sterile saline solution. Turbidity of inoculum was adjusted to 0.5 McFarland standard units prior to ×100 dilution in Mueller-Hinton broth. Antimicrobial peptides were dissolved in the broth at the stock concentration of 512 μg/mL. […] Positive control of bacterial culture diluted with broth and negative control of blank broth were included for each bacterial strain. The MICs were determined after incubation of the plates at 37°C for 18 h and red as the concentration of antimicrobial peptide at the next to the last well where bacterial growth was detected.

K. pneumoniae K47-25 = format: cell-based, Klebsiella pneumoniae
Experimental: as §1

P. aeruginosa K34-7 = format: cell-based, Pseudomonas aeruginosa
Experimental: as §1

E. coli ΔtolA JW0729-KC = format: cell-based, Escherichia coli; conditions: Mueller-Hinton broth, 256 to 2 μg/mL, 37°C, 18 h
Experimental: as §1

bEVs from A. baumannii = test: SPR interaction with immobilized bEVs; conditions: for koff rate constant determined by SPR / Calculated kon rate constant: A. baumannii bEVs; for koff rate constant determined by SPR: 400 s dissociation phase, Figueira et al. 2017 formalism, 25°C; for koff rate constant determined by SPR / Kd: three parallels; for Kd: read-out: Dissociation constant KD determined by SPR, A. baumannii bEVs on L1 chip, Biacore T200, 25°C, 10 mM HEPES, 150 mM NaCl, steady-state fit; for Calculated kon rate constant: calculated from KD and koff (KD=koff/kon)
Description: (§2) By this, the dissociation constant KD and the disassociation rate koff were obtained. These constants allowed us to calculate kon rate, using Eq. 4.

bEVs from K. pneumoniae = test: SPR interaction with immobilized bEVs; conditions: for koff rate constant determined by SPR / Calculated kon rate constant: K. pneumoniae bEVs; for koff rate constant determined by SPR: 400 s dissociation phase, Figueira et al. 2017 formalism, 25°C; for koff rate constant determined by SPR / Kd: three parallels; for Kd: read-out: Dissociation constant KD determined by SPR, K. pneumoniae bEVs on L1 chip, Biacore T200, 25°C, 10 mM HEPES, 150 mM NaCl, steady-state fit; for Calculated kon rate constant: calculated from KD and koff (KD=koff/kon)
Description: as §2

bEVs from P. aeruginosa = test: SPR interaction with immobilized bEVs; conditions: for koff rate constant determined by SPR / Calculated kon rate constant: P. aeruginosa bEVs; for koff rate constant determined by SPR: 400 s dissociation phase, Figueira et al. 2017 formalism, 25°C; for koff rate constant determined by SPR / Kd: three parallels; for Kd: read-out: Dissociation constant KD determined by SPR, P. aeruginosa bEVs on L1 chip, Biacore T200, 25°C, 10 mM HEPES, 150 mM NaCl, steady-state fit; for Calculated kon rate constant: calculated from KD and koff (KD=koff/kon)
Description: as §2

bEVs from E. coli ΔtolA = conditions: for koff rate constant determined by SPR / Calculated kon rate constant: E. coli ΔtolA bEVs; for koff rate constant determined by SPR: 400 s dissociation phase, Figueira et al. 2017 formalism, 25°C; for koff rate constant determined by SPR / Kd: three parallels; for Calculated kon rate constant: calculated from KD and koff (KD=koff/kon); for Kd: read-out: Dissociation constant KD determined by SPR, E. coli ΔtolA bEVs on L1 chip, Biacore T200, 25°C, 10 mM HEPES, 150 mM NaCl, steady-state fit
Description: as §2

[1] = strain not stated; ref Junkes et al., 2008; Bagheri, 2010; Gopal et al., 2012; Finger et al., 2015; Rainsford et al., 2022; Jakubec et al., 2023; cited from earlier work
[2] = system: liposomes prepared from E. coli ΔtolA lipid isolate; test: SPR interaction with immobilized liposomes; conditions: for koff rate constant determined by SPR / Calculated kon rate constant: Liposomes from E. coli ΔtolA lipid isolate; for koff rate constant determined by SPR: 400 s dissociation phase, Figueira et al. 2017 formalism, 25°C; for koff rate constant determined by SPR / Kd: three parallels; for Calculated kon rate constant: calculated from KD and koff (KD=koff/kon); for Kd: read-out: Dissociation constant KD determined by SPR, Liposomes from E. coli ΔtolA lipid isolate on L1 chip, Biacore T200, 25°C, 10 mM HEPES, 150 mM NaCl, steady-state fit
Description: as §2

[3] = A. baumannii K47-42, clinical multi-resistant, Mueller-Hinton broth, 256 to 2 μg/mL, 37°C, 18 h
[4] = K. pneumoniae K47-25, clinical multi-resistant, Mueller-Hinton broth, 256 to 2 μg/mL, 37°C, 18 h
[5] = P. aeruginosa K34-7, clinical multi-resistant, Mueller-Hinton broth, 256 to 2 μg/mL, 37°C, 18 h

SMILES	MIC (A. baumannii K47-42; [3]) [µg/mL]	MIC (K. pneumoniae K47-25; [4]) [µg/mL]	MIC (E. coli ΔtolA JW0729-KC) [µg/mL]	koff rate constant determined by SPR (bEVs from A. baumannii) [s⁻¹]	Kd (bEVs from A. baumannii) [µM]	koff rate constant determined by SPR (bEVs from K. pneumoniae) [s⁻¹]	Kd (bEVs from K. pneumoniae) [µM]	koff rate constant determined by SPR (bEVs from P. aeruginosa) [s⁻¹]	Kd (bEVs from P. aeruginosa) [µM]	koff rate constant determined by SPR (bEVs from E. coli ΔtolA) [s⁻¹]	Calculated kon rate constant (bEVs from E. coli ΔtolA) [M⁻¹ s⁻¹]	Kd (bEVs from E. coli ΔtolA) [µM]	koff rate constant determined by SPR [2] [s⁻¹]	Calculated kon rate constant [2] [M⁻¹ s⁻¹]	Kd [2] [µM]	MIC (A. baumannii K47-42; K47-42, 18 h) [µg/mL]	MIC (K. pneumoniae K47-25; K47-25, 18 h) [µg/mL]	Calculated kon rate constant (bEVs from A. baumannii) [M⁻¹ s⁻¹]	Calculated kon rate constant (bEVs from K. pneumoniae) [M⁻¹ s⁻¹]	Calculated kon rate constant (bEVs from P. aeruginosa) [M⁻¹ s⁻¹]	also measured
CC(C)C[C@@H]1NC(=O)[C@@H](CCCNC(=N)N)NC(=O)[C@H](CCCCN)NC(=O)[C@H](CC(N)=O)NC(=O)[C@@H](Cc2c[nH]c3ccccc23)NC(=O)[C@H](Cc2c[nH]c3ccccc23)NC1=O [c-LWwNKr, reference compound] (cyclo(LW[dW]NK[dR]))	> 256	> 256	> 256	1.72 ± 0.45	858 ± 61.4	1.75 ± 0.55	1080 ± 49	1.78 ± 0.54	1040 ± 270	1.42 ± 0.27	3000 ± 1000	406 ± 38.1	1.67 ± 0.45	2000 ± 1000	966 ± 170						MIC (P. aeruginosa K34-7; [5]): > 256 µg/mL; MIC (without antimicrobial activity) [1]: > 256 µg/mL
N=C(N)NCCC[C@@H]1NC(=O)[C@H](Cc2c[nH]c3ccccc23)NC(=O)[C@H](CCCNC(=N)N)NC(=O)[C@H](Cc2c[nH]c3ccccc23)NC(=O)[C@H](CCCNC(=N)N)NC(=O)[C@H](Cc2c[nH]c3ccccc23)NC1=O [c-WRWRWR] (cyclo(WRWRWR))			128 (≈ 125 µM)													> 256	> 256				MIC (P. aeruginosa K34-7; K34-7, 18 h): > 256 µg/mL
NCCCC[C@@H]1NC(=O)[C@H](CCCCN)NC(=O)[C@H](Cc2c[nH]c3ccccc23)NC(=O)[C@H](Cc2c[nH]c3ccccc23)NC(=O)[C@H](Cc2c[nH]c3ccccc23)NC(=O)[C@H](CCCCN)NC1=O [c-WWWKKK] (cyclo(WWWKKK))			4 (≈ 4.24 µM)	0.63 ± 0.12	100 ± 13.1	0.37 ± 0.03	21 ± 0.7	0.62 ± 0.07	100 ± 4.1	0.62 ± 0.05	11000 ± 1000	56.5 ± 1	0.21 ± 0.01	7000 ± 1000	28.3 ± 4.2	> 256	> 256	6000 ± 2000	18000 ± 1000	6000 ± 1000	
N=C(N)NCCC[C@@H]1NC(=O)[C@H](CCCNC(=N)N)NC(=O)[C@H](Cc2c[nH]c3ccccc23)NC(=O)[C@H](Cc2c[nH]c3ccccc23)NC(=O)[C@H](Cc2c[nH]c3ccccc23)NC(=O)[C@H](CCCNC(=N)N)NC1=O [c-WWWRRR] (cyclo(WWWRRR))			4 (≈ 3.89 µM)	0.40 ± 0.06	48.7 ± 2.7	0.28 ± 0.01	35.8 ± 1.3	0.37 ± 0.04	59 ± 2.6	0.18 ± 0.02	7000 ± 1000	27 ± 1.6	0.51 ± 0.08	11000 ± 1000	47.8 ± 5.2	> 256	256 (≈ 249 µM)	8000 ± 2000	8000 ± 1000	6000 ± 1000	
NCCCC[C@@H]1NC(=O)[C@H](Cc2c[nH]c3ccccc23)NC(=O)[C@H](CCCCN)NC(=O)[C@H](Cc2c[nH]c3ccccc23)NC(=O)[C@H](CCCCN)NC(=O)[C@H](Cc2c[nH]c3ccccc23)NC1=O [c-WKWKWK] (cyclo(WKWKWK))	> 256	> 256	256 (≈ 271 µM)	0.82 ± 0.11	389 ± 32.5	1.51 ± 0.54	694 ± 37.3	1.52 ± 0.37	749 ± 117	1.42 ± 0.16	4000 ± 1000	381 ± 22.6	0.95 ± 0.20	4000 ± 1000	244 ± 39.5			2000 ± 1000	2000 ± 1000	2000 ± 1000	MIC (P. aeruginosa K34-7; [5]): > 256 µg/mL
